Data set [1] deals with multidrug resistant FCR-3 strain of P. falciparum. The experiment in a line: In vitro antiplasmodial activity. Format: cell-based, Plasmodium falciparum.
Data set [2] has as its system Salmonella typhimurium TA1535/pSK1002. The experiment in a line: Genotoxicity assay, SOS/umu test. Type of data set: cell-based. The note with it: for genotoxicity (SOS/umu test): with or without S9 fraction; for induction factor (IF): at non-cytotoxic concentrations with or without S9 fraction.
Another data set in a line: Cytotoxicity assay. Format: cell-based, African Green Monkey. The conditions noted are these: African green monkey, VERO cells (kidney epithelial cells).
In data set [3] the test system is chloroquine sensitive (D6) strain of P. falciparum. The data set can be described thus: In vitro antiplasmodial activity. Type of data set: cell-based, Plasmodium falciparum.
Data set [4] relates to multidrug resistant (C235) strain of P. falciparum. The data set can be described thus: In vitro antiplasmodial activity. Format: cell-based, Plasmodium falciparum.
For another data set, the system named is β-hematin formation. The data set can be described thus: β-hematin inhibition assay. Format: biochemical. The note with it: screened between 0.44 and 110 μM; for IC50: read-out: β-hematin inhibition activity IC50.
The subject of a further data set is VERO cells. The experiment in a line: Cytotoxicity assay. Type of data set: cell-based, African Green Monkey. The conditions noted are these: for SI (selectivity index): CC50 (cytotoxicity)/IC50 (FCR-3); for CC50: inhibition of 50% of VERO cells survival, 48 h, MTT.
In a further data set the target is PM2 (plasmepsin II) (Plasmodium falciparum, UniProt P46925). The experiment in a line: Plasmepsin assay. Format: biochemical, P. falciparum. The conditions noted are these: tested at 5 μM.
Sequence of PM2 (plasmepsin II) (P46925 125-453): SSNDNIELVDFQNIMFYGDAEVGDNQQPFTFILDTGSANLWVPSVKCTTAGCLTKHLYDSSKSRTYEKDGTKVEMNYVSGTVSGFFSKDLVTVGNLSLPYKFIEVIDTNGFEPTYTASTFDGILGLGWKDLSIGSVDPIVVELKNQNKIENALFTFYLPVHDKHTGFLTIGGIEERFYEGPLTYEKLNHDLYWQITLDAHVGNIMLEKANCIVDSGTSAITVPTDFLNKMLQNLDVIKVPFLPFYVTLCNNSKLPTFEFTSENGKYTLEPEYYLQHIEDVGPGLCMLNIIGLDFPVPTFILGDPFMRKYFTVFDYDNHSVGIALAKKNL
For another data set, the system named is P. berghei ANKA. The experiment in a line: In vivo antimalarial activity, classical 4-day suppressive test. Also noted: species or system Plasmodium berghei (Swiss male mice). The conditions noted are these: oral 50 mg/kg/day x 4 days; for % Suppression of parasitemia: day 4.
The test system of data set [5] is hemozoin formation pathway in D6 culture. The data set can be described thus: Target validation in P. falciparum, heme speciation assay. Format: cell-based, Plasmodium falciparum. The note with it: increasing concentrations of compound.
The nature of another data set: Heme binding studies. The conditions noted are these: 40% DMSO, 0.02 M HEPES, pH 7.4.
The mark [6] stands for this setting: Plasmodium falciparum, FCR3, read-out: FCR-3 IC50, P. falciparum multidrug-resistant strain FCR-3.
Setting [7] is: Plasmodium falciparum, D6, 72 h, read-out: Antimalarial activity IC50 D6, chloroquine sensitive strain D6, 72 h.
Where [8] appears, read: Plasmodium falciparum, 72 h, read-out: Antimalarial activity IC50 C235, multidrug-resistant strain C235, 72 h.
The mark [9] stands for this setting: read-out: FCR-3 IC50, P. falciparum multidrug-resistant strain FCR-3.
Setting [10] is: read-out: Antimalarial activity IC50 D6, chloroquine sensitive strain D6, 72 h.

Structures are written as SMILES. “And” between values parts separate entries of the source, which are not always exact repeats. Identical values can stand only once. “Also recorded” adds a separate entry of the source. Like-named read-outs stand apart in the source and are kept apart here.

Broadly, the IC50 is the concentration needed to halve the response being measured. In general, CC50 refers to the concentration giving 50% cytotoxicity. A higher CC50 goes with better tolerance by the cells.

In the case of `Fc1ccc(C2=CCNCC2)cc1` [AM01, 4-(4-fluorophenyl)-1,2,3,6-tetrahydropyridine], in [1] (setting [6]), the 50% inhibitory concentration (IC50) was determined as 8.2 ± 2 µM. For the same compound, the “genotoxicity (SOS/umu test)” value in data set [2] is recorded as “not considered genotoxic”.
The like results for `O=[N+]([O-])c1ccc(NC2CCNCC2)c(C(F)(F)F)c1` [AM02, 4-(4-nitro-2-trifluoromethylphenyl)aminopiperidine] were, in that order, 4.3 ± 0.9 µM and “not considered genotoxic”.
Take `CCN(CC)CCCC(C)Nc1ccnc2cc(Cl)ccc12` (stereo not shown) [CQ, chloroquine, reference compound]: the IC50 was 0.13 µM in data set [1] (setting [6]), 0.014 ± 0.001 µM in data set [3] (setting [7]), 0.048 ± 0.004 µM in [4] (setting [8]) and 48.7 ± 2.7 µM with β-hematin formation. This compound also had a half-maximal cytotoxic concentration (CC50) at 48 h in “Cytotoxicity assay” of over 50 µM.
Regarding `O=[N+]([O-])c1ccc(N2CCN(CCC(O)c3csc4ccc(F)cc34)CC2)c(C(F)(F)F)c1` (stereo not shown) [Compound 14, 1-(5-fluorobenzo[b]thiophen-3-yl)-3-[4-(4-nitro-2-trifluoromethylphenyl)piperazin-1-yl] propan-1-ol], the IC50 in data set [1] (setting [6]) came to 1.32 ± 0.2 µM. The same compound yielded a CC50 at 48 h in “Cytotoxicity assay” of over 200 µM. The “SI (selectivity index)” value in the data set with VERO cells is over 150. The “inhibition of PM2 compared to the control” value on PM2 (plasmepsin II) is on record as “no significant inhibition”.
Turning to `O=[N+]([O-])c1cc(C(F)(F)F)ccc1N1CCN(CCC(O)c2csc3ccc(F)cc23)CC1` (stereo not shown) [Compound 15, 1-(5-fluorobenzo[b]thiophen-3-yl)-3-[4-(2-nitro-4-trifluoromethylphenyl)piperazin-1-yl] propan-1-ol], the half-maximal inhibitory concentration (IC50) in data set [1] (setting [6]) is 2.23 ± 0.2 µM. The same compound returned a 50% cytotoxic concentration (CC50) at 48 h in “Cytotoxicity assay” of over 150 µM. Moreover, the “SI (selectivity index)” value in the data set with VERO cells is listed as over 50.
For the compound `OC(CCN1CCN(c2ccc(C(F)(F)F)cc2)CC1)c1csc2ccc(F)cc12` (stereo not shown) [Compound 16, 1-(5-fluorobenzo[b]thiophen-3-yl)-3-(4-(4-trifluoromethylphenyl)piperazin-1-yl) propan-1-ol], the IC50 in data set [1] (setting [6]) is 1.68 ± 0.6 µM. Also, the CC50 at 48 h in “Cytotoxicity assay” is over 250 µM. Further, the “SI (selectivity index)” value in the data set with VERO cells was over 100. Further, the “inhibition of PM2 compared to the control” value at PM2 (plasmepsin II) was “no significant inhibition”.
Take `O=[N+]([O-])c1ccc(N2CCCN(CCC(O)c3csc4ccc(F)cc34)CC2)c(C(F)(F)F)c1` (stereo not shown) [Compound 17, 1-(5-fluorobenzo[b]thiophen-3-yl)-3-[4-(4-nitro-2-trifluoromethylphenyl)-1,4-diazepan-1-yl]propan-1-ol]: the IC50 in data set [1] (setting [6]) is under 1 µM; in data set [1] (setting [9]) it was 0.75 ± 0.02 µM. The compound further showed a CC50 at 48 h in “Cytotoxicity assay” of 13.3 µM. Besides, in the data set with VERO cells, the “SI (selectivity index)” value was 18. Besides, the “inhibition of PM2 compared to the control” value on PM2 (plasmepsin II) was “no significant inhibition”.
Turning to `O=[N+]([O-])c1ccc(N2CCC(NCCC(O)c3csc4ccc(F)cc34)CC2)c(C(F)(F)F)c1` (stereo not shown) [Compound 18], in [1] (setting [9]), the IC50 is 0.7 ± 0.1 µM. The compound also registered a 50% cytotoxic concentration (CC50) in the data set on VERO cells of 6.3 µM. Further, at PM2 (plasmepsin II), the “inhibition of PM2 compared to the control” value is “no significant inhibition”.
In the case of `OC(CCN1CC=C(c2ccc(F)cc2)CC1)c1ccc2ccccc2c1` (stereo not shown) [Compound 19, 3-[4-(4-fluorophenyl)-3,6-dihydropyridin-1(2H)-yl]-1-(naphthalen-2-yl)propan-1-ol], the 50% inhibitory concentration (IC50) in data set [1] (setting [6]) stood at 14 ± 3.5 µM. The CC50 at 48 h in “Cytotoxicity assay” is 24.6 µM. In addition, the “SI (selectivity index)” value in the data set on VERO cells is given as 1.75.
Take `OC(CCN1CC=C(c2ccc(F)cc2)CC1)c1ccc(C(F)(F)F)cc1` (stereo not shown) [Compound 20, 3-[4-(4-fluorophenyl)-3,6-dihydropyridin-1(2H)-y])-1-(4-(trifluoromethylphenyl)propan-1-ol]: the IC50 in data set [1] (setting [9]) came to 5.6 ± 2.3 µM. The compound further displayed a CC50 in the data set with VERO cells of over 350 µM.
For the compound `OC(CCN1CCN(c2ccc(C(F)(F)F)cc2)CC1)c1ccc(F)c2ccccc12` (stereo not shown) [Compound 21], the 50% inhibitory concentration (IC50) in data set [1] (setting [9]) was 0.93 ± 0.7 µM. The compound also returned a cytotoxic concentration (CC50) in the data set with VERO cells of over 100 µM.
As to `O=[N+]([O-])c1ccc(N2CCC(NCCC(O)c3ccc(F)c4ccccc34)CC2)c(C(F)(F)F)c1` (stereo not shown) [Compound 22, 1-(4-Fluoronaphthalen-1-yl)-3-((1-(4-nitro-2-(trifluoromethyl)phenyl)piperidin-4-yl)amino) propan-1-ol], in the data set “Cytotoxicity assay”, the midpoint of cytotoxicity, the CC50 at 48 h, lay at 5.5 µM. Also, in the data set with VERO cells, the “SI (selectivity index)” value is 37. In the data set on P. berghei ANKA (P. berghei-infected mice), the “MSD (mean survival time)” value is listed as over 35 days and the “cure / survival of treated mice” value is “complete cure”. The “% Suppression of parasitemia” value in the data set with P. berghei ANKA (P. berghei-infected mice, 50 mg/kg/day) was 98 ± 1% and 98%. For the same compound, in the data set on P. berghei ANKA, the “signs of toxicity in treated mice” value is on record as “no signs of toxicity”. In addition, the half-maximal inhibitory concentration (IC50) in data set [3] (setting [7]) is at most 0.19 µM. The IC50 in data set [3] (setting [10]) was 0.11 ± 0.01 µM. Also, the half-maximal inhibitory concentration (IC50) in the data set on β-hematin formation is 80.7 ± 1.7 µM. In data set [2], the “induction factor (IF)” value was “lower than 2” and the “genotoxicity (SOS/umu test)” value is recorded as “absence of genotoxicity; also recorded: not considered genotoxic”. Moreover, on PM2 (plasmepsin II), the “inhibition of PM2 compared to the control” value is given as “no significant inhibition”. The “levels of free heme and hemozoin” value in data set [5] is “remained constant”. The “affinity for the μ-oxo dimer form of heme (binding curve)” value in the data set “Heme binding studies” is on record as “affinity resembling that of chloroquine”.
Compound `OC(CCN1CC=C(c2ccc(F)cc2)CC1)c1ccc(F)c2ccccc12` (stereo not shown) [Compound 23, 1-(4-Fluoronaphthalen-1-yl)-3-[4-(4-fluorophenyl)-3,6-dihydropyridin-1(2H)-yl] propan-1-ol] returned a CC50 at 48 h in “Cytotoxicity assay” of 49.5 µM. Besides, the “SI (selectivity index)” value with VERO cells came out at 124. For the same compound, the “MSD (mean survival time)” value with P. berghei ANKA (P. berghei-infected mice) worked out at 9 days. Moreover, the “% Suppression of parasitemia” value in the data set with P. berghei ANKA (P. berghei-infected mice) is 73 ± 16%. Further, the IC50 in [3] (setting [7]) was at most 0.19 µM; in data set [3] (setting [10]), 0.19 ± 0.04 µM; in data set [4] (setting [8]) it was at most 0.28 µM; in [4] (read-out: Antimalarial activity IC50 C235, multidrug-resistant strain C235, 72 h), 0.28 ± 0.05 µM. Further, the “β-hematin inhibition activity IC50” value in the data set on β-hematin formation is recorded as “Not active”. Besides, in data set [2], the “induction factor (IF)” value is “lower than 2”. For the same compound, in data set [2], the “genotoxicity (SOS/umu test)” value is recorded as “absence of genotoxicity; also recorded: not considered genotoxic”. The “inhibition of PM2 compared to the control” value on PM2 (plasmepsin II) is on record as “no significant inhibition”.
On to `O=[N+]([O-])c1ccc(N2CCN(CCC(O)c3ccc(F)cc3)CC2)c(C(F)(F)F)c1` (stereo not shown) [Compound 24, 1-(4-fluorophenyl)-3-[4-(4-nitro-2-trifluoromethylphenyl)piperazin-1-yl]propan-1-ol], for which, in “Cytotoxicity assay”, half-maximal cytotoxicity (CC50 at 48 h) was put at 88 µM. Also, the “SI (selectivity index)” value in the data set with VERO cells is on record as 244. Further, in the data set on P. berghei ANKA (P. berghei-infected mice), the “MSD (mean survival time)” value is 8 days and the “% Suppression of parasitemia” value came out at 17 ± 8%. In data set [2], the “induction factor (IF)” value is listed as “lower than 2” and the “genotoxicity (SOS/umu test)” value is listed as “absence of genotoxicity; also recorded: not considered genotoxic”. Besides, the “inhibition of PM2 compared to the control” value on PM2 (plasmepsin II) is listed as “no significant inhibition”.
Consider `OC(CCN1CC=C(c2ccc(F)cc2)CC1)c1ccc(F)cc1` (stereo not shown) [Compound 26, 1-(4-fluorophenyl)-3-[4-(4-fluorophenyl)-3,6-dihydropyridin-1(2H)-yl]propan-1-ol], for which the results for the concentration for half-maximal inhibition (IC50) in [1] (setting [6]) and in [1] (setting [9]) were under 1 µM and 0.66 ± 0.01 µM, respectively. This compound displayed a CC50 at 48 h in the data set “Cytotoxicity assay” of over 100 µM. Also, the “SI (selectivity index)” value with VERO cells was over 150.
For `COc1cccc2c1C(=O)c1c(O)c3c(c(O)c1C2=O)C[C@@](O)(C(=O)CO)C[C@@H]3O[C@H]1C[C@H](N)[C@H](O)[C@H](C)O1` [Doxorubicin, reference compound], in the data set “Cytotoxicity assay”, half-maximal cytotoxicity (CC50 at 48 h) was put at 6.4 µM.

The values above are taken from article PMC5061469 (International Journal for Parasitology: Drugs and Drug …, 2016).
